Assay results published in patent US10676430B2, “Non-alpha substituted peroxy acids and uses thereof” (Stepan Company, priority 2016, dated 2020).

Experiments:
[1] = Peracid stability by standard titration method; format: physicochemical
Source text: […] The H2O2 used is commercially available from Arkema under the tradename Perxoal 50EG and includes a small amount of stabilizer. The reaction proceeded until equilibrium was reached, in accordance with the reaction scheme recited above. The starting carboxylic acids were acetic acid, 3-hydroxy propanoic acid, 3-chloro-propanoic acid, 2-hydroxy-acetic acid (glycolic acid), 2-hydroxy-propanoic acid (lactic acid) and 2-oxo-propanoic acid. The 3-hydroxy propanoic acid and 3-chloro-propanoic acid generated non alpha-substituted peracids that are examples of the present technology. The other starting carboxylic acids generated peracids that are not within Formula 1 or Formula 2 and are comparative peracid examples.
Each of the resulting peracids were evaluated for odor. In addition, the resulting peracids were evaluated for stability using a standard titration method known to those skilled in the art.

[2] = system: Staphylococcus aureus (Sa, ATCC 6538); experiment: Method A: AOAC Use Dilution test for Disinfectants (Method 955.15); format: cell-based; settings: 1 minute
Procedure: (§1) In this Example, 3-HPPA was evaluated for biocidal efficacy against Sa, Pa, and Ec using three different test methods. PAA was also evaluated for biocidal efficacy for comparison. The test methods were performed using 400 ppm of hard water as diluent, in the presence of 5% organic matter.
(§2) Method A: AOAC Use Dilution test for Disinfectants (Official Methods of Analysis. Methods 955.15—Staphylococcus aureus. Method 964.02—Pseudomonas aeruginosa. Posted September 2013). Killing efficacy is a qualitative result, reported as number of tubes showing microbial growth and total number carriers tested.

[3] = system: Spores of Clostridium difficile (ATCC 43598); experiment: Quantitative Disk Carrier Test Method (QCT-2), EPA MB-31-03, sporicidal efficacy; format: cell-based; settings: water hardness 400 ppm
Procedure: Different formulations containing 3-HPPA at different concentrations were prepared and evaluated for sporicidal efficacy against Cd. The 3-HPPA formulations were also compared to the sporicidal efficacy of different formulations containing peracetic acid (PAA). The test procedure for evaluating sporicidal efficacy was in accordance with the EPA test method in place in 2015: Quantitative Disk Carrier Test Method (QCT-2) Modified for Testing Antimicrobial Products Against Spores of Clostridium difficile (ATCC 43598) on Inanimate, Hard, Non-porous Surfaces (MB-31-03). This method mandates the presence of a high level of organic soil.

[4] = system: Staphylococcus aureus (Sa, ATCC 6538); experiment: Method A+: modified quantitative AOAC Use Dilution test; format: cell-based; settings: 750 ppm, 1 minute, 400 ppm hard water, 5% organic matter
Procedure: as §1
(§3) Method A^+: modified quantitative AOAC Use Dilution test for Disinfectants (Official Methods of Analysis. Methods 955.15—Staphylococcus aureus. Method 964.02—Pseudomonas aeruginosa. Posted September 2013). The number of surviving organisms on each carrier was quantitatively determined after the indicated contact time. No growth observed on the solid recovery medium means no survivors present on the carriers after exposure to the antimicrobial composition. A kill rate of 99.9999% is equivalent to a 6 log kill.

[5] = system: Pseudomonas aeruginosa (Pa, ATCC 15442); experiment: as above; format: cell-based; settings: 750 ppm, 1 minute, 400 ppm hard water, 5% organic matter
Procedure: as §1, §3

[6] = system: Pseudomonas aeruginosa (Pa, ATCC 15442); experiment: Method A: AOAC Use Dilution test for Disinfectants (Method 964.02); format: cell-based; settings: 1 minute
Procedure: as §1, §2

[7] = reaction mixture 20.00% organic acid, 7.50% H2O2, 1.00% H2SO4, DI water
[8] = 750 ppm, 400 ppm hard water, 5% organic matter

SMILES: CC(=O)OO [PAA, peracetic acid]
- Peracid at day 13 ([1]; 0% H2SO4 (no acid catalyst), 17.00-20.00% organic acid, 7.8-8.5% H2O2): 1.44%
- Peracid loss/day ([1]; 1.00% H2SO4, between day 6 and day 13): 0.131%
- Peracid at day 6 [1, 7]: 2.290%
- Peracid at day 13 [1, 7]: 2.270%
- Efficacy outcome, EPA UDT/MB-05-13 test method ([2]; 750 ppm active): efficacious
- Efficacy (Method A): tubes showing microbial growth / total carriers tested [2, 8]: 0/20
- Log10 reduction ([3]; peracid active 1844 ppm, contact time 2 minute): 4.76
- Log10 reduction ([3]; peracid active 2500 ppm, contact time 4 minute): 4.37
- Log10 reduction ([3]; peracid active 2500 ppm, contact time 4 minute, listed as PAA alone): <4.37
- Log10 reduction ([3]; peracid active 5000 ppm, contact time 4 minute): 6.39
- Efficacy (Method A+), kill rate [4]: >99.9999%
- Efficacy (Method A+), kill rate [5]: >99.9999%
- Efficacy outcome, EPA UDT/MB-05-13 test method ([6]; 750 ppm active): efficacious
- Efficacy (Method A): tubes showing microbial growth / total carriers tested [6, 8]: 0/20
